The results in this text go back to patent US20090280069A1, “PROGUANIL TO TREAT SKIN/MUCOSAL DISEASES” (Tolmar, Inc., priority 2008, published 2009).

The subject of this assay is S. pyogenes ATCC 19615. Briefly: time kill assay, S. pyogenes (Group A). It is filed as cell-based, Streptococcus pyogenes. As to the method: Streptococcus pyogenes (Group A) infections can lead to many skin disease syndromes. Impetigo, ecthyma, erysipelas, and cellulitis are all diseases caused by an infection of S. pyogenes. A microbiological study used a time kill assay with S. pyogenes ATCC 19615 as an indicator of the antibacterial activity of proguanil. […] A broth only control as well as a solvent 10% DGME control were added to the vials so that the total test volume was 15 ml. One hundred μl of a freshly grown suspension of the S. pyogenes was then added at time zero so that the initial bacterial suspension was between 10^7 and 10^8 CFU/ml. All test and control suspensions were then incubated under aerobic conditions at 35° C. Aliquots of the test and control suspensions were removed at 24, 48, and 72 hours and plated onto tryptic soy agar in triplicate using a spiral plater. These plates were incubated aerobically at 35° C. for 1-3 days. Surviving colonies were then counted and the CFU/ml of test and control suspensions calculated and graphed. The effects of proguanil on the S. pyogenes were observed.

`CC(C)NC(=N)NC(=N)Nc1ccc(Cl)cc1` [Proguanil, N-(4-Chlorophenyl)-N′-(1-methylethyl)imidodicarbonimidic diamide]: the “effect on the bacteria” value is, setting by setting: (1.6 μg/ml) “roughly followed the trend of the Mueller Hinton II broth control”; (8 μg/ml and 16 μg/ml, compared to Mueller Hinton II control) “may be slightly inhibitory”; (80 μg/ml, lesser effect than 160 and 100 μg/ml) “good growth inhibition”; (100 μg/ml, over 72 hours, single assay) “substantial effect”; (160 μg/ml, lowest CFU/ml at all time points) “greatest effect”. Also, under “160 μg/ml, T=24, 48 and 72 hours”, the CFU/ml was found to be 0 CFU/ml. In addition, for the setting “Streptococcus pyrogenes (Group A) ATCC 19615”, the “Relative Sensitivity (Compared to Other Strains Tested)” value was “Sensitive”. The “Approximate Inhibitory Level” value (Streptococcus pyrogenes (Group A) ATCC 19615, level at which partial or total inhibition of growth is observed) was 80 to 160 µg/mL.
